Data published in paper PMC8839256, “Concept of Fluorescent Transport Activity Biosensor for the Characterization of the Arabidopsis NPF1.3 Activity of Nitrate” (Sensors (Basel, Switzerland), 2022).

Target: T1, NPF1.3 (Arabidopsis thaliana, UniProt Q9LYD5)
T1 construct: full-length cDNA in pOO2-GW; cRNA expressed in Xenopus laevis oocytes
T1 sequence (Q9LYD5 1-481): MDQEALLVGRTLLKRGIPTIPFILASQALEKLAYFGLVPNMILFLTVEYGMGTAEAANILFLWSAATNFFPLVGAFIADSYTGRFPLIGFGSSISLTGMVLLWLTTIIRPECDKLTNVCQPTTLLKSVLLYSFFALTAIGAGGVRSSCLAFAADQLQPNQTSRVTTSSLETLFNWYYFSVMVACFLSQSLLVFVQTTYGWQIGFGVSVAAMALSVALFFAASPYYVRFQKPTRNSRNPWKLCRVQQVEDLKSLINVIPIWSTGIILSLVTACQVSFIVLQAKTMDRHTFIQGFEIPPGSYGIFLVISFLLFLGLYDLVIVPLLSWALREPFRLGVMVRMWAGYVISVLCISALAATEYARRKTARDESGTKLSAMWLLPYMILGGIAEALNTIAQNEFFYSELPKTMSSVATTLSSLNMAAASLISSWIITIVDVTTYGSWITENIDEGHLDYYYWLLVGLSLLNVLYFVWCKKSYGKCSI
Test: two-electrode voltage clamp, inward current in Xenopus oocytes
Type: cell-based
Conditions: 5 mM CsNO3 (Figure 5 legend, methods; text says KNO3); -120 mV

In the case of `O=[N+]([O-])O` [nitrate], the “two-electrode voltage clamp, inward current in Xenopus oocytes” value is reported as “the nitrate-dependent inward currents were observed by KNO3 in NPF1.3-injected oocytes”.
